Test results: US7659267B2, “1,3-Benzothiazinone derivatives, process for producing the same use thereof” (Takeda Pharmaceutical Company Limited, priority 2002, dated 2010)

What was measured:
[1] = system: primary cardiomyocytes from newborn rats; assay: Cardiomyocyte apoptosis inhibitory activity (serum-free culture, viable cell number by WST-8); format: cell-based; details: Rattus norvegicus, 96 h, mean of three independent experiments, concentration required to increase the mean viable cell number by 50% vs. no test compound, serum-free Medium 199, 4 days, read-out: Minimum Effective Concentration
Text: Cardiomyocyte Apoptosis Inhibitory Activity
Newborn rats (within 1 day after birth) were obtained from pregnant Wistar rats purchased from Charles River Japan, Inc., anesthetized under ether, and sterilized with 70% ethanol. Then the heart was excised with tweezers. The excised heart was washed with a phosphate buffered saline (T900; manufactured by Takara) and cut into pieces with surgical scissors. The tissue pieces were washed 4 to 5 times with a phosphate buffered saline to remove a majority of blood-derived non-myocardial cells. To the tissue pieces derived from 10 newborns, 5 ml of enzyme solution [solution prepared by dissolving trypsin (1.25 mg)(manufactured by Difco) and collagenase (0.25 mg)(manufactured by Sigma) in phosphate buffered saline (PBS)(1 ml)] was added and the mixture was stirred with a stirrer for 15 minutes while maintaining at 37° C. After 2.5 ml of the enzyme solution was added thereto, the mixture was stirred for further 15 minutes. This procedure was repeated twice. Subsequently, Medium 199 (manufactured by Gibson) containing 10% fetal calf serum (manufactured by Biowiker) was added in a half volume of the enzyme solution to terminate the enzyme reaction. The cells were filtered through a cell strainer (manufactured by Falcon) and then centrifuged at 400×g for 5 minutes to collect the cells.
The cells thus collected from the 10 newborns were suspended in 50 ml of Medium 199 containing 10% fetal calf serum. The suspension was plated onto 100 mm Petri dishes (manufactured by Iwaki) in a volume of 10 ml each/dish and cultured for 1 hour in a CO2 incubator set at 5% CO2 and 37° C. The cells were then recovered, filtered through a cell strainer and centrifuged at 400×g for 5 minutes to collect the primary cardiomyocytes derived from the newborn rats.
Then, the cardiomyocytes from the newborn rats (10) were suspended in 2 ml of hypotonic solution [prepared by dissolving NH4Cl (8.29 g), KHCO3 (1.0 g), 37 mg of EDTA/2Na (disodium ethylenediaminetetraacetate)(manufactured by Dojin Chemical Laboratory) in water (1 L)] and the suspension was allowed to stand for 3 minutes to disrupt erythrocytes. After 10 ml of Medium 199 containing 10% fetal calf serum was added thereto, the mixture was centrifuged at 400×g for 5 minutes to collect the primary cardiomyocytes from newborn rats. The cells were suspended in Medium 199 containing 10% fetal calf serum. The suspension was then filtered through a cell strainer. An aliquot of the resulting cardiomyocyte suspension was taken and 0.3% trypan blue was added thereto. The mixture was mildly mixed and the number of cardiomyocytes was counted with a hemocytometer.
The primary cardiomyocytes from the newborn rats were suspended at a density of 3×10^6 cells/ml in Medium 199 containing 10% fetal calf serum. The suspension was plated onto a 96-well plate in a volume of 0.1 ml/well, followed by incubation in a CO2 incubator set at 5% CO2 and 37° C. for a day. After the plate was stirred with a micromixer (manufactured by Taiyo Kagaku Kogyo), the medium was exchanged 3 times with serum-free Medium 199 and then test compounds were added thereto. The cells were cultured for further 4 days to induce apoptosis. Subsequently, fetal calf serum was added thereto at a concentration of 10%, and the cells were further cultured for about 17 hours in a CO2 incubator set at 5% CO2 and 37° C. The number of viable cells was determined with Cell Counting Kit (manufactured by Dojin Chemical Laboratory) using as a chromogen WST-8 [2-(2-methoxy-4-nitrophenyl)3-(4-nitrophenyl)-5-(2,4-disulfophenyl)-2H-tetrazolium, monosodium salt] to assess the cardiomyocyte apoptosis inhibitory activity.
The experiment described above was triplicated in an independent manner.
In the TABLE, the minimum effective concentration is defined as the concentration of the test compound required to increase the mean viable cell number by 50% as compared to that in the absence of any test compound.

[2] = system: antioxidant response element (ARE) of rat glutathione S-transferase Ya subunit gene in Rat H9c2 cells; assay: Antioxidant response element (ARE)-dependent transcriptional activation activity (luciferase reporter); format: cell-based; details: concentration causing luminescence of 200% of test compound-free group (100%); H9c2 cells with pGL3-ARE reporter, about 24 hours
Text: Antioxidant Response Element (ARE)-dependent Transcriptional Activation Activity
(1) Construction of Luciferase Reporter Vector Bearing Antioxidant Response Element (ARE)
ARE-containing luciferase reporter vectors pGL3-ARE and pGL3-ARE 694G were constructed based on The Journal of Biological Chemistry, 266, 11632, 1991 and The Journal of Biological Chemistry, 275, 40134, 2000, by synthesizing ARE (SEQ ID NO: 1) for rat glutathione S-transferase Ya subunit gene and mutated ARE, i.e., mutant ARE (A694G)(SEQ ID NO: 2) oligonucleotide and then transfecting them to the NheI/BglII site of pGL3-Promoter Vector (manufactured by Promega Corp.), respectively.
(2) Assay for Antioxidant Response Element (ARE)-dependent Transcriptional Activation Activity
Rat H9c2 cells were suspended in Dulbecco's modified Eagle's medium (10% FBS, D-MEM medium) containing […] heat-inactivated fetal calf serum in 7×10^4 cells/ml. […] After allowing to stand for 30 minutes, fluorescence levels by luciferase were determined using a WALLAC ARVO SX (manufactured by Perkin-Elmer). Taking the emitted luminescence of test compound-free group as 100%, the ARE-dependent transcriptional activation was shown in terms of the concentration of test compound, which caused to emit the luminescence of 200% (EC200: μM).

SMILES | melting point | minimal effective concentration [1] [µM] | EC200 [2] [µM]
O=C(O)CCc1cccc(-c2nc(=O)c3ccccc3s2)c1 [Example 7, 3-[3-(4-Oxo-4H-1,3-benzothiazin-2-yl)phenyl]propionic acid] | 179.8 to 180.2 °C |  | 
O=c1nc(-c2ccc(C(F)(F)F)cc2)sc2ccccc12 [Example 9, 2-(4-Trifluoromethylphenyl)-4H-1,3-benzothiazin-4-one] | 122.5 to 122.6 °C | 0.088 | 
CC(=O)c1ccc(-c2nc(=O)c3ccccc3s2)cc1 [Example 10, 2-(4-Acetylphenyl)-4H-1,3-benzothiazin-4-one] | 197.5 to 197.6 °C | 0.062 | 
O=c1nc(-c2cccc(Br)c2)sc2ccccc12 [Example 11, 2-(3-Bromophenyl)-4H-1,3-benzothiazin-4-one] | 161.6 to 161.7 °C |  | 
CC(=O)Nc1cccc(-c2nc(=O)c3ccccc3s2)c1 [Example 13, N-[3-(4-Oxo-4H-1,3-benzothiazin-2-yl)phenyl]acetamide] |  | 0.062 | 
CC(=O)Nc1ccc(-c2nc(=O)c3ccccc3s2)cc1 [Example 16, N-[4-(4-Oxo-4H-1,3-benzothiazin-2-yl)phenyl]acetamide] | 231.4 to 231.5 °C | 0.021 | 
O=c1nc(-c2ccc(-c3ccccc3)cc2)sc2ccccc12 [Example 18, 2-(1,1′-Biphenyl-4-yl)-4H-1,3-benzothiazin-4-one] |  | 0.083 | 
O=c1nc(-c2cccc(C(F)(F)F)c2)sc2ccccc12 [Example 20, 2-(3-Trifluoromethylphenyl)-4H-1,3-benzothiazin-4-one] | 114.6 to 114.7 °C |  | 1.5
COC(=O)c1cccc(-c2nc(=O)c3ccccc3s2)c1 [Example 21, Methyl 3-(4-oxo-4H-1,3-benzothiazin-2-yl)benzoate] | 164.3 to 164.4 °C |  | 
COC(=O)C(Cc1cccc(-c2nc(=O)c3ccccc3s2)c1)NC(=O)c1ccccc1 (centres unmarked) [Example 22, Methyl 2-(benzoylamino)-3-[3-(4-oxo-4H-1,3-benzothiazin-2-yl)phenyl]propionate] | 130.9 to 131 °C |  | 
CCNc1cc(-c2nc(=O)c3ccccc3s2)ccc1C(=O)OC [compound 15, Methyl 2-(ethylamino)-4-(4-oxo-4H-1,3-benzothiazin-2-yl)benzoate] | 170.8 to 178.2 °C |  | 

More lines, main results first:

melting point | SMILES | minimal effective concentration [1] [µM] | EC200 [2] [µM]
119.5 to 119.6 °C | O=c1nc(C2CC2)sc2ccccc12 [Example 1, 2-Cyclopropyl-4H-1,3-benzothiazin-4-one] | 0.072 | 
146.7 to 149.4 °C | O=C1NC(=C2CCC2)Sc2ccccc21 [Example 2, 2-Cyclobutylidene-2,3-dihydro-4H-1,3-benzothiazin-4-one] | 0.02 | 
190.4 to 191.4 °C | O=C1NC(=C2CCCC2)Sc2ccccc21 [Example 3, 2-Cyclopentylidene-2,3-dihydro-4H-1,3-benzothiazin-4-one] | 0.047 | 
145.6 to 147.1 °C | O=C1NC(=C2CCCCC2)Sc2ccccc21 [Example 4, 2-Cyclohexylidene-2,3-dihydro-4H-1,3-benzothiazin-4-one] | 0.042 | 
187.1 to 188.3 °C | CC(C)=C1NC(=O)c2ccccc2S1 [Example 5, 2-Isopropylidene-2,3-dihydro-4H-1,3-benzothiazin-4-one] |  | 
199.6 to 199.7 °C | N#Cc1cccc(-c2nc(=O)c3ccccc3s2)c1 [Example 8, 2-(3-Cyanophenyl)-4H-1,3-benzothiazin-4-one] | 0.025 | 
275 °C (dec.) | O=c1nc(-c2ccc(O)cc2)sc2ccccc12 [Example 12, 2-(4-Hydroxyphenyl)-4H-1,3-benzothiazin-4-one] |  | 
139.6 to 139.8 °C | O=c1nc(-c2ccccc2C(F)(F)F)sc2ccccc12 [Example 19, 2-(2-Trifluoromethylphenyl)-4H-1,3-benzothiazin-4-one] |  | 
134.1 to 134.2 °C | Cc1cc(Cl)ccc1-c1nc(=O)c2ccccc2s1 [compound 14, 2-(4-Chloro-2-methylphenyl)-4H-1,3-benzothiazin-4-one] |  | 
